These are literature values, as cited in patent publication US20170056463A1, “COMPOSITIONS AND METHODS FOR TREATING DIABETES” (priority 2015, published 2017).

Data set [1] relates to phosphotyrosine phosphatase.
For data set [2], the system named is HSV (herpes simplex virus).
Test in data set [3]: not given
This is another data set of the same source.

Take `[Cr]` [Chromium, chromium]: in data set [1], the phosphotyrosine phosphatase activity entry was “inhibit”.

For `COc1ccc2cc3[n+](cc2c1OC)CCc1cc2c(cc1-3)OCO2` [berberine], the “levels of fasting blood sugar” value (after oral supplementation with the herbal extract of berberine, patients with pre-diabetes and diabetes) is listed as “normalize”. For the same molecule, the “lowering of blood glucose” value (doses of about 1,000 mg daily, compared with metformin) is recorded as “as effectively as metformin”. Under “previous investigations”, the cholesterol ratios result is “improved” and the “hemoglobin A1c (HbA1c)” value is “significant reduction”. For the same molecule, the “growth of HSV” value in data set [2] was “inhibits growth”.

As to `[Zn]` [zinc], in data set [3] (2 hour post-prandial measurements in people treated with zinc), the blood glucose levels entry is reported as “reduced”. In data set [3] (after zinc supplementation), the “systolic and diastolic blood pressures” value is reported as “significant reduction”.
